Patent US8592374B2, “Neurotrophic peptides” (Research Foundation for Mental Hygiene, Inc., priority 2007, dated 2013)
“Also recorded” adds a separate entry of the source. Peptide text beside a SMILES is read from it. * marks the point of attachment. X1 = NC(=O)C12CC3CC(CC(N*)(C3)C1)C2

What was measured:
Format in all cases: in vivo, mice
Conditions in all cases: 25 nmol/day for 35 days
dentate gyrus = assay: Expression of synaptophysin and synapsin I in the DG (optical density)
Method: For double labeling of BrdU and NeuN, brain sections were pretreated with 2 M HCl at 37° C. for 30 min and neutralized with 0.1 M borate buffer (pH 8.5) for 10 minutes. Tissue sections were incubated first for 30 min with blocking buffer (4% normal goat serum+0.1% Tween-20 in PBS) and then overnight at 4° C. in the presence of BrdU (Millipore Corporation, USA) and NeuN (Millipore Corporation) antibodies diluted 1:400 and 1:100, respectively. To determine the integrity of presynaptic terminals, tissues were labeled with anti-synaptophysin (1:200; Clone SY38, Millipore Corporation) or anti-synapsin I (1:200; Stressgen Biotechnologies Corporation, Canada). The brain sections were incubated in primary antibody over night at 4° C., respectively. Alexa 488 and 594 (1:500; Invitrogen, USA) were used as secondary antibodies. All images were obtained using Nikon Eclipse 90i and D-Eclipse C1 microscopes (Nikon Corporation, Japan).
For quantitative analysis of the expression of synaptophysin and synapsin I in DG, every tenth section in a series of 40 μm coronal sections throughout the hippocampus was analyzed. The entire area of GCL was outlined. Maximum projection images were then generated based on confocal z-stacks, and antibody staining was quantified by measuring the mean optical density (OD) with the help of NIH Image J program, version 1.32j (http://rsb.info.nih.gov/ij/).

[1] = system: adult hippocampal progenitors in the dentate gyrus; assay: Neurogenesis in the DG (BrdU-positive and BrdU/NeuN-double-positive cells)
Method: (§1) For the compound treatment, mice (8 animals/group) received subcutaneous implants of extended release depot pellets containing P21 or P22 at 25 nmol/day for 35 days of continuous dosing (Innovative Research of America, USA). For the control group (8 animals), pellets consisted of the carrier polymer only. Mice were anesthetized with 2.5% Avertin (0.38 ml for a 25 g animal). Under sterile conditions, pellets were implanted subcutaneously along the anterolateral aspect of the right shoulder with a precision trochar (Innovative Research of America). After recovery of anesthesia, animals were transferred to the animal colony. No complications associated with the implantation and treatment were observed. All procedures on animals were conducted in accordance with approved protocols from our Institutional Animal Welfare Committee.
To investigate neurogenesis, BrdU (Sigma, USA) was given as two daily i.p. injections (100 mg/kg/dose) for five days starting on day 2 of compounds treatment.
At the end of the behavioral experiment, animals were anesthetized with an overdose of sodium pentobarbital (120 mg/kg) and transcardially perfused with 0.1 M phosphate buffered saline (PBS). After perfusion, the brains were removed from the skull, the left hemisphere was immediately frozen for future biochemical analysis and the right hemisphere was immersion fixed in 4% paraformaldehyde in 0.1 M PBS for at least 24 hours at room temperature. Tissues were equilibrated and stored in 30% sucrose solution at 4° C. until sectioning. The brains were sectioned sagittaly on a freezing sliding microtome at 40 μm through the entire hippocampus and the sections were stored in glycol anti-freeze solution (Ethylene glycol, glycerol and 0.1 M PBS in 3:3:4 ratio) at −20° C. until further processing.
For double labeling of BrdU and NeuN, brain sections were pretreated with 2 M HCl at 37° C. for 30 min and neutralized with 0.1 M borate buffer (pH 8.5) for 10 minutes. […]
Neurogenesis in the dentate gyrus was evaluated by counting the number of BrdU-positive and BrdU/NeuN-double-positive cells in the dentate gyrus (DG). The number of positive cells was determined in every fifth section in a series of 40 μm sagittal sections throughout the DG using unbiased sterology. All BrdU-positive cells in the subgranular zone (SGZ) and granule cell layer (GCL) were counted using a fluorescent microscope (Nikon Eclipse 90i, Nikon Corporation, Japan). Double labeled cells were assessed by a confocal imaging system (D-Eclipse C1, Nikon Corporation). […] For each brain, at least 100 cells were counted based on coefficient of error determinations.

[2] = General examination (physical state, body weight, exploratory activity, swim speed, floating)
Method: All in vivo studies for characterization of compounds (stereology and behavioral analysis) were performed on 8-10-month-old female retired breeders of C57Bl6 background. Animals were acclimatized for at least 3 weeks to exclude occasional pregnant mice from the studies. Mice were group-housed (3 animals per cage) with a 12:12 hours light/dark cycle and with free access to food and water.
as §1
The physical state and condition of animals were carefully monitored throughout the treatment by evaluating grooming, physical state and clasping reflex. Body weight was also recorded.
The test used was an adaptation of the procedure previously described by Sargolini and collaborators (Sargolini, F., et al. Behav Brain Res 138 (2003):153-63). The testing apparatus was a classic open field (i.e. a PVC square arena, 50×50 cm, with walls 40 cm high). The open field was placed in a part of the room separated from the experimentator with a black opaque curtain. The open field was surmounted by a video camera connected to a computer. Three objects were employed in this task. The general procedure consisted of three different phases: a familiarization phase (1 session of 20 min), a sample phase, and a test phase. On the first days, mice were individually submitted to the familiarization session during which they were introduced in the empty arena in order to become familiar with the apparatus. This familiarization session allowed to record a baseline level of locomotor activity (measuring the distance covered in the open field) and of anxiety (measuring the time the animals spent in the centre of the arena during the first five minutes). On the second day each mouse was first submitted to the sample phase (session 1, ten minutes) for which two identical objects were placed in a symmetric position from the centre of the arena. After a 15 minute delay during which the mouse returned to its home cage, it was reintroduced in the arena to perform the test phase (session 2, 10 min). The mouse was then exposed to two objects: a familiar object (previously presented during the sample phase) and a new object, placed at the same location as during the sample phase. Data collection was performed using a video tracking system (Smart version 2.0.14 software, Pan Lab/San Diego Instruments). Object discrimination was calculated as follows: OD=(time spent close to new object)/(time spent close to new object)+(time spent close to old object)×100

## CC(=O)N[C@@H](CC(=O)O)C(=O)NCC(=O)NCC(=O)N[C@@H](CC(C)C)C(=O)NC12CC3CC(C1)CC(C(N)=O)(C3)C2 [Peptide P21, Ac-DGGL^AG-NH2] (Ac-DGGL-X1)
Dentate gyrus
  synapsin I immunoreactivity in the GCL and MCL: significantly promoted expression; also recorded: Significant increases
  synaptophysin immunoreactivity in the GCL and MCL: significantly promoted expression; also recorded: Significant increases
[1]
  BrdU positive cells in the DG (GCL and SGZ): significantly increased; also recorded: significant increase
  BrdU/NeuN positive cells in the DG (GCL): significantly increased; also recorded: significant increase
[2]; open field
  exploratory behavior / exploratory activity: no alteration; also recorded: did not induce any effect
[2]; subcutaneous pellets
  body weight: no alteration; also recorded: did not induce any effect
  general physical state: no alteration
